# Reference: US11654167B2, “Pharmaceutical composition based on bacteriophages against F. nucleatum; use in the treatment of diseases associated with this pathogen” (priority 2016, dated 2023)
# Columns and labels:
# [1] = test system: gingival tissue associated with the first molar; assay: histology of gingival tissue (hematoxylin-eosin), inflammatory response; format: in vivo, Sprague Dawley rat; conditions: chlorhexidine 0.12% and/or amoxicillin (50 mg/Kg)
# Method: In order to perform the analysis of gingival tissue associated with the first molar once the piece is worn out, this one is fixed in a solution of paraformaldehyde at 10% for 24 hours. Afterwards, the bone is decalcified in an […] solution for 24 hours. The decalcified tissue was soaked in paraffin blocks, in order to be cut afterwards by a microtome in transversal sections for 4μ, in order to be finally stained with the hematoxylin-eosin staining. […] The presence or absence of inflammation in the tissue was examined by using the following parameters: Hematopoietic distribution, presence of vasodilation, thickness of keratinized epithelial tissue, presence of immune cells (lymphocytes, monocytes, polymorph nuclear, etc.), prisoners of inflammatory focus and cell infiltration in keratinized epithelium. In this way, the manifestations of acute or chronic inflammatory response and the normal, incipient, or established inflammatory response were determined.
# [2] = test system: F. nucleatum; assay: detection of F. nucleatum by PCR in co-infected rats; format: in vivo, Sprague Dawley rat; conditions: chlorhexidine 0.12% and/or amoxicillin
# Method: (§1) Methodology consists in co-infecting rats with P. gingivalis and F. nucleatum, and treating or not treating them with the mixture of bacteriophages Fnpϕ02-14, Fnpϕ11 and Fnnϕ107 at different MOI. The procedure for each stage is described below:
# (§2) Finally, on week 10, the sacrifice of the rats of the group is performed. The initial treatment of local cleaning with CHX 0.12% and the local administration of the bacteria mixture is performed under anesthesia for 5-10 sec. with isoflurane gas. The sacrifice of the rats was performed with an anesthesia overdose of Ketamine:Xylazine (2:1).
# (§3) The mixture of the three lytic bacteriophages Fnpϕ02-14, Fnpϕ11 and Fnnϕ107, specific for F. nucleatum, is performed, with a concentration of 10^8, 10^10 and 10^8 UFP/mL, respectively. Afterwards, it was kept at 4° C. until it was used.
# Each research group is composed by 3 subjects per cage, and there ware a number of 6 subjects per group. The research groups are the following: Group 1 (Continuous treatment phage), in which the administration of the mixture of bacteriophages in a multiplicity of infection (MOI) of 0.01 (1 bacteria for 100 phages) is performed, in the same inoculation times as the bacteria mixture (week 2, 4, 6 and 8), for 4 days every time. […]
# [3] = test system: F. nucleatum; assay: in vivo bacteria count of F. nucleatum in co-infected rats; design: species or system Sprague Dawley rat; conditions: chlorhexidine 0.12% local cleaning and/or amoxicillin (50 mg/Kg) in water
# Method: An evaluation is performed to determine the effect of these treatments on the microbiological count associated with periodontal destruction in Sprague Dawley rat models inoculated with P. gingivalis and F. nucleatum, the main pathogens of the etiology of periodontal disease.
# as §1, §2, §3
# Each research group is composed by 3 subjects per cage, and there ware a number of 6 subjects per group. […]
# [4] = test system: RANKL and OPG; assay: bone reabsorption indicators RANKL and OPG in plasma by indirect ELISA; format: in vivo, Sprague Dawley rat; conditions: chlorhexidine 0.12% and/or amoxicillin
# Method: The determination of bone reabsorption of the different subjects of treatment is performed based on measuring the molecules associated with this type of physiological response. The levels of RANKL and OPG molecules are measured by Enzyme-Linked ImmunoSorbent Assay (ELISA), specifically the ELISA indirect type, performed from a plasma sample. The blood sample was extracted as follows: the rat is deeply anesthetized with ketamine:xylazine, via the intraperitoneal route. The rat is treated with heparin 2 minutes before surgery, also via the intraperitoneal route with 200-300 μL. […]
# Prior to the use of plasma, a quantification of proteins (mg/mL) of each sample is performed by the concentrated Bradford protocol (5×). […] Finally, the absorbance is measured at 595 nm in a plate reader (SQ-2800 model spectrophotometer, United Products & Instruments Inc., Dayton, USA). […]
# It is mixed and protected from the light. […] Afterwards, in order to stop the reaction, 100 μL of NaOH 3N, in order to finally read the absorbency of each well at 405 nm in an ELISA reader. • In order to obtain the values of concentration for each sample, the Lambert-Beer formula was used: Abs405=ε*d*[mM]; • where ε: extinction coefficient 18.5*10^3 M^−1 cm^−1 and d: length of the well 1 cm. […]
# [5] = test system: alveolar bone of the first molar; assay: bone loss of alveolar bone of the first molar; format: in vivo, Sprague Dawley rat; conditions: chlorhexidine 0.12% and/or amoxicillin
# Method: In order to determine bone loss, we measured directly the alveolar bone of the first molar in the hemi sectioned right jaw of each subject. In order to obtain the alveolar bone, the jaw extraction is performed and autoclaved for 20 min. The first cleaning is performed, removing the associated tissue. Afterwards, the bones are soaked in hydrogen peroxide at 3% for all night at room temperature. After this time, the pieces were washed with distilled water in order to eliminate any remainder of adhered tissue; the bone is brushed with toothpaste and finally washed with distilled water. Clean jaws are stained with methylene blue at 1% for 15 seconds, and then washed with distilled water to remove the excess of stain. The pieces are left to dry by air, and it is in this moment when the limit cement-enamel appears in the associated dental piece. The measure is obtained by measuring from the exposed base of the root of the tooth to the cement-enamel limit.
SMILES,inflammatory response in histological sections [1],"detection of F. nucleatum by PCR, post-treatment versus pre-treatment samples [2]",F. nucleatum count after versus before treatment [3],ratio RANKL/OPG versus control group without treatment [4],bone loss of alveolar bone versus control group [5]
[H]/N=C(\N/C(=N/[H])NCCCCCCNC(=N)NC(=N)Nc1ccc(Cl)cc1)Nc1ccc(Cl)cc1 [chlorhexidine],presence of an active acute inflammatory response,lower count of positive detections,tendency to reducing bacteria count,do not present significant differences,do not avoid bone loss
CC1(C)S[C@@H]2[C@H](NC(=O)[C@H](N)c3ccc(O)cc3)C(=O)N2[C@H]1C(=O)O [amoxicillin],presence of an acute incipient inflammatory response,lower count of positive detections,only the count in the post mortem sample decreases,present significant differences,do not avoid bone loss
